Entries after “also recorded” stand apart in the source; their conditions may differ. Read-outs that look alike come from different tables or passages of the source.
What was measured:
Assay type in all cases: in vivo, human
[1] = Plasma pharmacokinetics in the food-effect cohort; details: single 10 mg; for CL/F / Vd/F / half-life: arithmetic mean ± SD; for Vd/F: read-out: Vz/F; for half-life: read-out: t½ (converted); for AUC(0-inf) / Cmax / AUC: geometric mean (geometric CV%); for AUC: read-out: AUC24
Excerpt: Participants were randomized in a 1:1 ratio to 1 of 2 sequences: fasted/fed or fed/fasted. […] For all study groups, blood samples for PK assessment were obtained predose, up to 12 times daily on day 1, and then at regular intervals throughout the study (see Supplemental Appendix for details). Standard noncompartmental methods were used to calculate PK parameters using Phoenix WinNonlin, version 7.0; actual sample collection times were used.

healthy adults [2] = assay: Echocardiography (core laboratory) pharmacodynamics, MAD cohorts
Experimental: The MAD cohorts also used a randomized, double-blind, placebo-controlled, sequential design.
For PD assessments of LVEF, echocardiograms for the SAD and MAD cohorts were interpreted by the echocardiography core laboratory and used for all data analysis and dose-level review decisions, and immediate local interpretation of the echocardiograms was performed for safety monitoring. […] Echocardiograms on day 3 (48 hours after dosing) were obtained only if the 24-hour LVEF had not returned to near or above baseline, as determined by the investigator. In the MAD cohorts, echocardiograms were obtained on day -1; predose on day 1; at 1.5 hours postdose on days 2, 4, and 9; and at 1.5, 24, and 72 hours postdose on day 14 (for the 5-mg and 10-mg cohorts) or on day 17 (for the 7.5-mg cohort). Echocardiograms were obtained 3 days after the last dose (on day 17 or 20) only if the participant’s prior LVEF was not near or above baseline, as determined by the investigator.
Using echocardiography instrumentation certified for clinical use, echocardiographic images were obtained from standard views based on American Society of Echocardiography recommendations for chamber quantification.[19] To obtain the LVEF, the endocardial borders of 3 different cardiac cycles were traced at both end diastole and end systole from the apical 4- and 2-chamber views and LV end-diastolic volume (LVEDV) and LV end-systolic volume (LVESV), calculated using the Simpson’s method of discs algorithm. Ejection fraction was calculated in the standard manner: LVEF = (LVEDV − LVESV)/LVEDV. The intraobserver variability (coefficient of variation) for LVEF was 8%.
All participants who received ≥1 dose of the study drug and had ≥1 predose and ≥1 postdose echocardiographic measurements were included in the PD analysis set. […] Descriptive statistics of the echocardiographic parameters were generated using SAS, version 9.3 or higher. Dose-response analysis was performed using analysis of covariance to identify the least-squares mean difference (aficamten minus placebo), as described in the Supplemental Appendix. Analyses of concentration “bin” and exposure-response were also performed using analysis of covariance, as described in the Supplemental Appendix. SAS PROC MIXED was used for all comparative analyses.
Statistical A nalysis of P harmacodynamic (PD) P aram eters
To analyze the impact of drug dose on echocardiographic parameters in the SAD and MAD
cohorts, an inferential analysis was conducted on t he PD analysis set using linear mixed models
for rep eated -measur es an alysis of covarian ce ( AN COVA). The A NCOVA used baseline valu e as
a covariate, included treatment, time-point, and time-point-by- treatment interaction as fixed
effects, and ch ange f rom baseline as the d ependent variable. Th e unstructur ed varian ce-
covarian ce structu re w as used, and the model acco unted for the time- point r epeated m easur es.
The ANCOVA analysis was conducted separately for each study part and f or each PD p aram eter .
The least-squares means, the difference in least squares means (active minus placebo), and the
associated 2-sided 95% CIs were presented for each comparison.
Concentration bin analysis
An additional inferential analysis was performed i n the SAD and MAD cohorts , to evaluate the
analysis set. A concentrat ion bin ANCOVA was conducted using linear mi xed models for
repeat ed-measures an aly ses with concentr ation bin group as a fix ed ef fect, baseline PD
parameters as a covari ate, change f rom baseline as the dependent v ariable, and a random
intercept to adjust for the repeat ed measures. The unstructured variance-co variance structur e was
used.Plasma concentr ations of aficamten wer e paired with coincident PD parameters. The
ANCOVA compared the change in PD parameters between each bin versus the pooled placebo
group. The least-squ ares means, the differen ce in l east squares m eans (bin group minus placebo), […]

healthy adults [3] = assay: Safety echocardiograms assessed by study cardiologist (AEs of decreased LVEF); details: for LVEF deemed AE (decreased ejection fraction <45%): study cardiologist
Excerpt: Recommendations regarding dose escalation in the SAD cohorts—and in the MAD cohorts described in the next section—were made by the treating investigator (who was blinded to treatment group) and endorsed or not by the Dose Level Review Committee (DLRC), the members of which were unblinded. […] Criteria for escalation included that no more than 2 participants in a dose group developed an LVEF of <50% and that no individual developed an LVEF of <45%; escalation criteria are given in full in the Supplemental Appendix. For safety monitoring, participants in all cohorts had periodic echocardiograms, which were assessed by a cardiologist. In the SAD and MAD cohorts, echocardiograms were also reviewed by an echocardiography core laboratory for PD assessments, as described in the section on echocardiographic methods. In addition, participants in all cohorts were monitored with continuous 12-lead ECG recording using Holter monitors. For safety monitoring, a single 12-lead ECG was extracted at screening, predose, and periodically throughout follow-up and interpreted by the investigator. In the SAD, MAD, and CYP2D6-PM cohorts, cardiodynamic ECGs (triplicate 10-second, 12-lead ECG recordings) were obtained before the corresponding PK blood sample (see the Supplemental Appendix for full details on blood sampling), and ECG intervals were quantitated by qualified readers.

[4] = human, plasma, oral, 10 mg, Fasted, n = 4
[5] = human, plasma, oral, 10 mg, Fasted, n = 10
[6] = human, plasma, oral, 10 mg, Fed, n = 7
[7] = SAD 40 mg, one participant, 6 h after drug dose
[8] = SAD 50 mg, one participant, 4 h after drug dose
[9] = SAD 75 mg, single participant, 4 h after drug dose

Compound: CCc1nc(-c2ccc3c(c2)CC[C@H]3NC(=O)c2cnn(C)c2)no1 [Aficamten]
- CL/F ([1]; Fasted, n = 4): 2.8 ± 0.6 L/h
- CL/F ([1]; Fed, n = 7): 3.1 ± 0.9 L/h
- Vd/F [1, 4]: 346 ± 134 L
- half-life [1, 4]: 84.4 ± 16.4 h
- AUC(0-inf) [1, 4]: 3670 ng·h/mL
- Cmax [1, 5]: 50.6 ng/mL
- AUC [1, 5]: 601 ng·h/mL
- Tmax ([1]; human, plasma, oral, 10 mg, Fasted, median (range), n = 10): 2.3 h
- Cmax ([1]; human, plasma, oral, 10 mg, Fed (high-fat breakfast), n = 12): 65 ng/mL
- Vd/F [1, 6]: 340 ± 100 L
- half-life [1, 6]: 78 ± 8.1 h
- AUC(0-inf) [1, 6]: 3410 ng·h/mL
- AUC ([1]; human, plasma, oral, 10 mg, Fed, n = 12): 631 ng·h/mL
- Effect of food on the PK ([1]; fed vs fasted): not affected; also recorded: no significant effect; also recorded: no effect of food
- Increase of Cmax when taken with food ([1]; fed vs fasted): approximately 30%
- Participants with absolute reduction in LVEF of ≥5% from baseline (healthy adults [2]; MAD 7.5 mg once daily, 1 of 6): 17%
- Participants with absolute reduction in LVEF of ≥10% from baseline (healthy adults [2]; MAD 10 mg once daily): 33%
- Participants with reduction in LVEF ≥10% (healthy adults [2]; MAD 10 mg once daily): 2 participants
- Participants who met the stopping criteria based on echocardiography results (healthy adults [2]; MAD 10 mg once daily for 14 days): 2 participants
- Placebo-corrected reduction in LVEF (least-squares mean difference) (healthy adults [2]; MAD 10 mg once daily for 14 days, […] postdose on day 14, P = 0.21): 3.2%
- Participants with absolute reduction in LVEF of ≥5% from baseline (healthy adults [2]; MAD 10 mg once daily, 2 of 6): 33%
- Largest mean reduction in LVEF from baseline (healthy adults [2]; MAD 10 mg, […] postdose on day 14): 5.0%
- Suppression of LVEF in most participants (healthy adults [2]; MAD cohorts, plasma concentrations of ≤180 ng/mL): minimal suppression of LVEF
- Relationship of LVEF to plasma concentration (healthy adults [2]; MAD cohorts, bin concentration analysis or linear regression analysis): did not reach statistical significance
- Reduction in LVEF to <50% (healthy adults [2]; any of the MAD cohorts, per core laboratory assessment): not observed
- Participants with echocardiogram-related AEs of decreased LVEF of <45% (healthy adults [3]; 1 each in SAD 40-mg, 50-mg, and 75-mg cohorts): 3 participants
- AEs of decreased ejection fraction of <45% (healthy adults [3]; MAD, CYP2D6-PM, and food-effect cohorts): no echocardiographic AEs
- Grade of AE of decreased ejection fraction (healthy adults [3]; SAD 40 mg, one participant): 1 (mild)
- Onset of AE of decreased ejection fraction (time after drug dose) (healthy adults [3]; SAD 40 mg, one participant): 1.4 h
- LVEF recorded at resolution of AE (healthy adults [3]; [7]): 58.4%
- Time from onset to resolution of AE of decreased ejection fraction (healthy adults [3]; [7]): 4.6 h
- LVEF deemed AE (decreased ejection fraction <45%) (healthy adults [3]; SAD 40 mg, one participant): 42.2%
- Decrease in LVEF of 1 participant after cohort expansion (healthy adults [3]; SAD 50 mg): > 15%
- LVEF of 1 participant after cohort expansion (healthy adults [3]; SAD 50 mg): < 45%
- Postdose LVEF of 1 participant (<50%) (healthy adults [3]; SAD 50 mg, initial cohort): 46.2%
- Grade of AE of decreased ejection fraction (healthy adults [3]; SAD 50 mg, one participant): 1 (mild)
- Onset of AE of decreased ejection fraction (time after drug dose) (healthy adults [3]; SAD 50 mg, one participant): 1.5 h
- LVEF recorded at resolution of AE (healthy adults [3]; [8]): 50.2%
- Time from onset to resolution of AE of decreased ejection fraction (healthy adults [3]; [8]): 2.5 h
- LVEF deemed AE (decreased ejection fraction <45%) (healthy adults [3]; SAD 50 mg, one participant): 42.1%
- Postdose LVEF of the sentinel participant (healthy adults [3]; SAD 75 mg): < 45%
- Reduction in LVEF of the single participant (healthy adults [3]; SAD 75 mg, […] postdose): 31.5%
- Grade of AE of decreased ejection fraction (healthy adults [3]; SAD 75 mg, single participant): 1 (mild)
- Onset of AE of decreased ejection fraction (time after drug dose) (healthy adults [3]; SAD 75 mg, single participant): 1.5 h
- LVEF recorded at resolution of AE (healthy adults [3]; [9]): 51.9%
- Time from onset to resolution of AE of decreased ejection fraction (healthy adults [3]; [9]): 2.5 h
- LVEF deemed AE (decreased ejection fraction <45%) (healthy adults [3]; SAD 75 mg, single participant, […] postdose): 34.6%
- Time to resolution of AEs of decreased LVEF (next echocardiogram assessment) (healthy adults [3]; SAD 40, 50, 75 mg): 2.5 to 4.6 h
